Laboratory results: patent US11801228B2, “Modified guanidine-containing polymers for biologic delivery” (THE FLORIDA INTERNATIONAL UNIVERSITY BOARD OF TRUSTEES, priority 2022, dated 2023)

System: HeLa cells
Assay: Functional protein delivery (MTT with PN/enzyme complexes)
Format: cell-based
Conditions: no carrier
Procedure: Final concentrations of 40, 20, 10, and 5 μM were added into the complete media by dilution of the polymer stock solutions. After addition of the samples, cells were incubated for 18 h prior to treatment with 10 μL of methylthiazole tetrazolium (MTT) (5 mg/mL in PBS) and incubated for 4 h at 37° C. After incubation, 200 μL of medium was gently removed and 100 μL of biological grade DMSO was added to solubilize the purple formazan crystals. Absorbance was measured by microwell plate reader. Cell viability was determined as a function of absorbance of each sample relative to control wells. All measurements represent the average of three independent measurements+/−standard deviation.
MTT assay was performed with PN/enzyme complexes are described previously. In short, serial dilutions of saporin or RNase were prepared and complexes with various PNs. For serum-containing media, complexes were added to HeLa cells and incubated overnight prior to MTT treatment. For serum-free experiments, complexes were added in DMEM for 4 h and the media was replaced with complete media overnight prior to MTT treatment.

Saporin
toxicity of free enzyme on HeLa cells: no toxicity

B1: RNase A: 13.7 kDa enzyme capable of degrading RNA chains (protein, UniProt P61823 27-150, looked up)
Ribonuclease pancreatic: KETAAAKFERQHMDSSTSAASSSNYCNQMMKSRNLTKDRCKPVNTFVHESLADVQAVCSQKNVACKNGQTNCYQSYSTMSITDCRETGSSKYPNCAYKTTQANKHIIVACEGNPYVPVHFDASV
toxicity of free enzyme on HeLa cells: no toxicity
